Data published in paper PMC9570211, “Analysis of 1-Aroyl-3-[3-chloro-2-methylphenyl] Thiourea Hybrids as Potent Urease Inhibitors: Synthesis, Biochemical Evaluation and Computational Approach” (International Journal of Molecular Sciences, 2022).
Like-named read-outs stand apart in the source and are kept apart here.

Experiments:
jack bean urease (JBU) [1] = molecular target: T1, jack bean urease (JBU) (Canavalia ensiformis, UniProt P07374); assay: biochemical
Experimental: Hydrophobic and hydrophilic groups were substituted on a phenyl ring in the novel analogues 4a–j that were synthesized in order to check urease inhibition activity.
The function of nitro, chloro, methyl and ethyl substitution in urease inhibitory activity was evaluated. Thiourea, a well-known urease inhibitor, served as the reference compound.
The methodology used in this research for in vitro urease inhibitory activity is the same as reported in our earlier paper.

[2] = DPPH free radical scavenging assay; conditions: in comparison of standard Vitamin C; up to 100 µg/mL
Experimental: All of the produced 1-aroyl-3-[3-chloro-2-methylphenyl]thiourea compounds were assessed for the ability of DPPH free radical scavenging activity as depicted in Figure 2.
The assay performed in our studies had the same methodology as reported in our previous research articles.

jack bean urease (JBU) [3] = molecular target: T1, jack bean urease (JBU); assay: Kinetic analysis of urease inhibition (Lineweaver–Burk); format: biochemical
Excerpt: Kinetic investigations provided additional evidence for the inhibitory function, in which the potential of the potent derivative 4i to inhibit the substrate at different concentrations in such a way that enzyme concentration remained constant. The kinetic tests of the enzyme gave a series of straight lines by the Lineweaver–Burk plot of 1/V versus 1/[S] in the presence of varying compound concentrations (Figure 3A).
Kinetics performed here as stated previously in our research articles was used for urease activity determination.
Figure 3 Compound 4i inhibiting urease in a Lineweaver–Burk plot (A) Concentrations of 4i were 0.00, 0.001, 0.002 and 0.004 µM (Blue, green, red and black colored lines). […] The lines were constructed using least squares linear regression mean ± SEM.

T1 sequence (P07374 whole entry, looked up): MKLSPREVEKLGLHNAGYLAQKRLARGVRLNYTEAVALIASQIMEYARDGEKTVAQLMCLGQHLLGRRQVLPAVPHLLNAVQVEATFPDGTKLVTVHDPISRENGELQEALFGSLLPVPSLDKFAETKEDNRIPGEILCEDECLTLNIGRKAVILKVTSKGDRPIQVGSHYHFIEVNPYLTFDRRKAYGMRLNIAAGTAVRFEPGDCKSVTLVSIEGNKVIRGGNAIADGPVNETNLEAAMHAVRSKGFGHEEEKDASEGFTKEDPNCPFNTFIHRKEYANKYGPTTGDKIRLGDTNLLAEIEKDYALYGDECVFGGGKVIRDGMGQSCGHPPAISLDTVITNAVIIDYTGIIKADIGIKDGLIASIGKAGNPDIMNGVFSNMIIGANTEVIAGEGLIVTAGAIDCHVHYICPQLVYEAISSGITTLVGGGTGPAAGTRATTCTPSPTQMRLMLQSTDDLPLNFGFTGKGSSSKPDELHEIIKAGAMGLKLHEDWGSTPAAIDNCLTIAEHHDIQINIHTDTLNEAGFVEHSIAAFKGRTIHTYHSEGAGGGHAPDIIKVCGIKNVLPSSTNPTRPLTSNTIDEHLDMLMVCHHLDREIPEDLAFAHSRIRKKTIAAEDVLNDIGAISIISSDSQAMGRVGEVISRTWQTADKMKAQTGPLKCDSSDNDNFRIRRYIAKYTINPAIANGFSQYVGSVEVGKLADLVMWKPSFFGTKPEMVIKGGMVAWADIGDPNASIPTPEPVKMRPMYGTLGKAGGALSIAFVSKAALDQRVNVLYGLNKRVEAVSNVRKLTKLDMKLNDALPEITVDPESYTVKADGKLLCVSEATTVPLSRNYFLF

SMILES | IC50 (jack bean urease (JBU) [1]) [nM] | DPPH free radical scavenging activity [2] | other results
Cc1c(Cl)cccc1NC(=S)NC(=O)c1ccccc1 [Compound 4a, N-[[3-chloro-2-methylphenyl]carbamothioyl]benzamide] | 44.9 ± 85.4 |  | 
COc1ccc(C(=O)NC(=S)Nc2cccc(Cl)c2C)cc1 [Compound 4b] | 7.9 ± 4.8 |  | 
Cc1ccc(C(=O)NC(=S)Nc2cccc(Cl)c2C)cc1 [Compound 4d] | 53.2 ± 99.5 | good activity | 
Cc1c(Cl)cccc1NC(=S)NC(=O)c1ccc([N+](=O)[O-])cc1 [Compound 4e] |  | good activity | 
Cc1c(Cl)cccc1NC(=S)NC(=O)c1cccc([N+](=O)[O-])c1 [Compound 4f] | 13.6 | good activity | 
Cc1c(Cl)cccc1NC(=S)NC(=O)c1cc([N+](=O)[O-])cc([N+](=O)[O-])c1 [Compound 4g] | 33.5 ± 99.4 | good activity | 
Cc1c(Cl)cccc1NC(=S)NC(=O)c1ccc(Cl)cc1 [Compound 4h] | 22.9 | good activity | 
Cc1c(Cl)cccc1NC(=S)NC(=O)c1ccccc1Cl [Compound 4i] | 1.9 ± 1.1 | good activity | Ki (jack bean urease (JBU) [3]): 0.3 nM; Inhibition Type (jack bean urease (JBU) [3]; Lineweaver–Burk plot): Non-Competitive; Vmax (jack bean urease (JBU) [3]; concentration of 4i 0.001 (µM per Figure 3)): 0.000387 ΔA/Min; Vmax (jack bean urease (JBU) [3]; concentration of 4i 0.002 (µM per Figure 3)): 0.000131 ΔA/Min; Vmax (jack bean urease (JBU) [3]; concentration of 4i 0.004 (µM per Figure 3)): 8.495 × 10^−5 ΔA/Min
NC(N)=S [Thiourea] |  |  | IC50 (jack bean urease (JBU) [1]; jack bean urease, mean ± SEM, read-out: Urease Activity IC50 ± SEM): 4750 ± 54.5 nM
